Here are results for three compounds from patent US11319316B2, “Compounds that induce degradation of anti-apoptotic Bcl-2 family proteins and the uses thereof” (BioVentures, LLC, priority 2016, dated 2022).

Where two headings read alike, the source gives them in different places. Where only a bound is given, the exact number is not on record here.

Holding throughout (format): cell-based
Assay [1] addresses T1, Bcl-xL (Homo sapiens, UniProt Q07817).
T1 construct: endogenous in cells; host or cells: WI38 cells (normal NC-WI38 and ionizing-radiation-induced senescent IR-SC WI38)
Briefly: Protein degradation assay (Western blot) in IR-SC WI38 cells. As for the experimental part: IR-SC WI38 cells were incubated with vehicle or increasing concentrations of XZ-14439 for 18 hours at increasing […] (FIG. 3A) and at a fixed concentration of XZ-14439 for increasing times (FIG. […]). The cells were digested with 0.25% trypsin and 1 mM EDTA, and harvested in RIPA lysis buffer with 1% Phosphatase Inhibitor Cocktail 3 and 1% Protease Inhibitor Cocktail. An equal amount of protein (15-30 μg/lane) from each cell extract was resolved on a 12% SDS-PAGE gel. Proteins were blotted onto a NOVEX PVDF membrane by electrophoresis. The membranes were blocked with TBS-T blocking buffer (5% nonfat milk in 25 mM Tris-HCL, pH 7.4; 3 mM KCl; […] NaCl; and 0.05% Tween) and probed with primary antibodies (at a predetermined optimal concentration) overnight at 4° C. or for 1 hour at room temperature. After extensive washing with TBS-T, the membranes were incubated with an appropriate peroxidase-conjugated secondary antibody for 1 hour at room temperature. After three washes with TBS-T, the proteins of interest were detected with ECL Western Blotting Detection Reagents and recorded with autoradiography (Pierce Biotech, Rockford, Ill., USA). The primary antibody Bcl-x (#2762), Bcl-2 antibody (#2872S) and β-actin (13E5, #4970) were purchased from Cell Signaling.
(§1) IR-SC WI38 (FIG. 4A) and RS4; 11 (FIG. 4B) cells were incubated with vehicle or increasing concentrations of compounds of Formula (I) or Formula (II) for 6 or 16 hours, at 1 μM (FIG. 4A) and 100 nm (FIG. 4B), respectively. The cells were harvested in RIPA lysis buffer with 1% Phosphatase Inhibitor Cocktail 3 and 1% Protease Inhibitor Cocktail. An equal amount of protein (15-30 μg/lane) from each cell extract was resolved on a 12% SDS-PAGE gel. Proteins were blotted onto a NOVEX PVDF membrane by electrophoresis. The membranes were blocked with TBS-T blocking buffer (5% nonfat milk in 25 mM Tris-HCL, pH 7.4; 3 mM KCl; 140 mM NaCl; and 0.05% Tween) and probed with primary antibodies (at a predetermined optimal concentration) overnight at 4° C. or for 1 hour at room temperature. After extensive washing with TBS-T, the membranes were incubated with an appropriate peroxidase-conjugated secondary antibody (Jackson ImmunoResearch Europe, Suffolk, UK) for 1 hour at room temperature. After three washes with TBS-T, the proteins of interest were detected with ECL Western Blotting Detection Reagents and recorded with autoradiography. The primary antibody Bcl-xl (#2762), Bcl-2 antibody (#2872S), Bcl-w (#2724S), Mcl-1 (#5453s) and β-actin (13E5, #4970) were purchased from Cell Signaling.

Another assay deals with RS4; 11 cancer cells. The assay is described as follows: Cancer cell viability by MTS, 72 h, RS4;11. The note with it: RS4;11 cells. The procedure:
(§2) RS4; 11 and NCI-H146 cancer cells were incubated with vehicle or increasing concentrations of compounds of Formula (I) and Formula (II). At 72 hours post-treatment cell viability was measured by MTS and EC50 was calculated as a percentage of control cells treated with vehicle. Table 1 depicts the EC50 values of compounds of Formula (I) and Formula (II) against RS4; 11 and NCI-H146.

A further assay has as its system NCI-H146 cancer cells. Briefly: Cancer cell viability by MTS, 72 h, NCI-H146. The procedure: as §2
Assay [2] concerns the target T1, Bcl-xL. Briefly: Protein degradation assay (Western blot) in RS4;11 cells. Also on record: dose or concentration left out as unconfirmed. As for the experimental part:
as §1, with “IR-SC WI38 (FIG. 4A) and RS4; 11 (FIG. 4B) cells were incubated with vehicle or increasing concentrations of compounds of Formula (I) or Formula (II) for 6 or 16 hours, at 1 μM (FIG. 4A) and 100 nm (FIG. 4B), respectively.” left out

Assay [3] concerns IR-induced senescent WI38 cells (IR-SC). Briefly: Viability of IR-induced senescent WI38 cells (IR-SC), 72 h, PI staining and flow cytometry. As to conditions: for EC50: IR-induced senescent WI38 cells, 72 hours, viable (PI-) cells as percentage of vehicle control; for Ratio NSC/SC: ratio of WI38 EC50 in NSC to EC50 in IR-SC. The procedure:
(§3) Normal WI38 (NSC) and IR-induced senescent WI38 cells (IR-SC) were incubated with vehicle or increasing concentrations of compounds of Formula (I) or Formula (II) for 72 hours. The cells were digested with 0.25% trypsin and 1 mM EDTA, and harvested in PBS containing 2% FBS. After incubation with propidium iodide (PI, 100 ng/ml) in PBS at room temperature for 1 minute, cells were centrifuged at 1,200 rpm for 6 minutes to remove PI and then resuspended in PBS containing 2% FBS for analysis using a flow cytometer. Viable cells (PI-cells) were analyzed by flow cytometry at a constant flow rate to count the number of cells and calculated as a percentage of control cells treated with vehicle. Table 1 depicts the EC50 values of the compounds of Formula (I) and compounds of Formula (II) against normal WI38 and IR-induced senescent WI38.

The test system of a further assay is Normal WI38 (NSC). Briefly: Viability of normal WI38 cells (NSC), 72 h, PI staining and flow cytometry. The procedure:
as §3

Assay [4] deals with T1, Bcl-xL. Briefly: Bcl-xL depletion in normal WI38 (NC-WI38) cells. The note with it: 2 μM; FIG. 1.
Where [5] appears, read: Homo sapiens, WI-38, viable (PI-) cells as percentage of vehicle control.

T1 sequence (Q07817 whole entry): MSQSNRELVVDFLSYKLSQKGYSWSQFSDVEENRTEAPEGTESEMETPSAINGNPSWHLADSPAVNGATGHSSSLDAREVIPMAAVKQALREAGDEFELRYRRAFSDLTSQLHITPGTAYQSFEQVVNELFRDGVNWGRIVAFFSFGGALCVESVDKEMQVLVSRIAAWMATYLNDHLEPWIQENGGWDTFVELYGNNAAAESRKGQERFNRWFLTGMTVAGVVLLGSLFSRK

For `CC1(C)CCC(c2ccc(Cl)cc2)=C(CN2CCN(c3ccc(C(=O)NS(=O)(=O)c4ccc(N[C@H](CCN5CCN(C(=O)CCCn6cc(COCCOCCNc7cccc8c7C(=O)N(C7CCC(=O)NC7=O)C8=O)nn6)CC5)CSc5ccccc5)c(S(=O)(=O)C(F)(F)F)c4)cc3)CC2)C1` (stereo partly drawn) [PZ-15227], on Bcl-xL [1] (1 μM (FIG. 4A)), the “Bcl-xL depletion in IR-SC WI38 cells” value was “deplete Bcl-xL”. The EC50 is 114 nM with RS4; 11 cancer cells, 68.9 nM with NCI-H146 cancer cells, 108 nM in assay [3] and above 10000 nM in the assay with Normal WI38 (NSC) (viable (PI-) cells as percentage of vehicle control). Further, at Bcl-xL [2], the “Bcl-xL depletion in RS4; 11 cells” value was “deplete Bcl-xL”. Further, in assay [3], the “Ratio NSC/SC” value is reported as above 92.
For the compound `CC1(C)CCC(c2ccc(Cl)cc2)=C(CN2CCN(c3ccc(C(=O)NS(=O)(=O)c4ccc(N[C@H](CCN5CCN(CCOCCNc6cccc7c6C(=O)N(C6CCC(=O)NC6=O)C7=O)CC5)CSc5ccccc5)c(S(=O)(=O)C(F)(F)F)c4)cc3)CC2)C1` (stereo partly drawn) [XZ-15416, 4-(4-((4′-chloro-4,4-dimethyl-3,4,5,6-tetrahydro-[1,1′-biphenyl]-2-yl)methyl)piperazin-1-yl)-N-((4-(((2R)-4-(4-(2-(2-((2-(2,6-dioxopiperidin-3-yl)-1,3-dioxoisoindolin-4-yl)amino)ethoxy)ethyl)piperazin-1-yl)-1-(phenylthio)butan-2-yl)amino)-3-((trifluoromethyl)sulfonyl)phenyl)sulfonyl)benzamide], the “Bcl-xL depletion in IR-SC WI38 cells” value on Bcl-xL [1] (1 μM (FIG. 4A)) is given as “deplete Bcl-xL”. Also, the half-maximal effective concentration (EC50) was 30.7 nM in the assay with RS4; 11 cancer cells (Homo sapiens); above 10 nM with NCI-H146 cancer cells (Homo sapiens); below 156 nM in assay [3] (Homo sapiens, WI-38); above 10000 nM with Normal WI38 (NSC) (setting [5]). For the same compound, the “Bcl-xL depletion in RS4; 11 cells” value on Bcl-xL [2] was “deplete Bcl-xL”. For the same compound, the “Ratio NSC/SC” value in assay [3] was above 64.02.
Regarding `O=C1CCC(N2C(=O)c3cccc(NCCOCCOCCOCc4cn(CCCC(=O)N5CCN(CC#Cc6ccc(OCCCc7sc(N8CCc9cccc(C(=O)Nc%10nc%11ccccc%11s%10)c9C8)nc7C(=O)O)c(F)c6)CC5)nn4)c3C2=O)C(=O)N1` (stereo not drawn) [XZ-13906, 2-(8-(benzo[d]thiazol-2-ylcarbamoyl)-3,4-dihydroisoquinolin-2(1H)-yl)-5-(3-(4-(3-(4-(4-(4-((2-(2-(2-(2-(2,6-dioxopiperidin-3-yl)-1,3-dioxoisoindolin-4-ylamino)ethoxy)ethoxy)ethoxy)methyl)-1H-1,2,3-triazol-1-yl)butanoyl)piperazin-1-yl)prop-1-ynyl)-2-fluorophenoxy)propyl)thiazole-4-carboxylic acid], the “Bcl-xL depletion in IR-SC WI38 cells” value on Bcl-xL [1] (2 μM, FIG. 1) is given as “depletes Bcl-xL”. Also, the EC50 with RS4; 11 cancer cells (Homo sapiens) was above 2000 nM; in the assay on NCI-H146 cancer cells (Homo sapiens) it was above 2000 nM; in assay [3] (Homo sapiens, WI-38) it was 2400 nM; in the assay on Normal WI38 (NSC) (setting [5]), 100000 nM. Also, the “Bcl-xL depletion in normal WI38 (NC-WI38)” value on Bcl-xL [4] is reported as “depletes Bcl-xL”. Moreover, in assay [3], the “Ratio NSC/SC” value stood at 41.67.
